From article PMC6641592, “Deciphering Design Principles of Förster Resonance Energy Transfer-Based Protease Substrates: Thermolysin-Like Protease from Geobacillus stearothermophilus as a Test Case” (ACS Omega, 2018)
Where two headings read alike, the source gives them in different places. AF647 = Alexa Fluor 647 (maleimide); CF = 5,6-carboxyfluorescein; Cy5 = Cy5 (maleimide)

Tests used:
TLP-ste (C288L/N181C) = TLP-ste (C288L/N181C) (Geobacillus stearothermophilus, UniProt P06874, C520L/N413C); conditions: for increase of kcat with peptide length: 8aa substrate relative to 4aa substrate with the same acceptor; for Km / vmax: Michaelis-Menten fit, mean ± SD, triplicate; for vmax: MOPS pH 7.4, 10% DMSO; for kcat/KM: calculated from kcat and KM
[1] = test system: CC(C)C[C@H](NC(=O)CNC(=O)C=Cc1ccco1)C(N)=O; test: purified protein, by the assay type; conditions: other: enzyme preparation TLP-ste (C288L/N181C)
TLP-ste = TLP-ste (Geobacillus stearothermophilus, UniProt P06874, C520L/N413C); conditions: product 0–20 μM; substrates 8aa-Cy5 and 8aa-AF647 0–2 μM; triplicate
[2] = after complete hydrolysis with 1 nM TLP-ste, >16 h room temperature; MOPS buffer, 10% DMSO; λex 450/λem 520 nm
[3] = biological target: thermolysin-like protease (TLP-ste) from Geobacillus stearothermophilus, C288L/N181C (Geobacillus stearothermophilus)
[4] = corrected for IFE and FRET efficiency, 1 nM TLP-ste, 20 mM MOPS pH 7.4, 5 mM CaCl2, 10% DMSO, 30 °C, donor λex 490/λem 520 nm
[5] = corrected for IFE and FRET efficiency, 1 nM TLP-ste, 30 °C
[6] = corrected for IFE and FRET efficiency, vmax divided by enzyme concentration (1 nM)
[7] = correction: FRET efficiency only
[8] = correction: FRET efficiency only, vmax divided by enzyme concentration
[9] = correction: IFE only, vmax divided by enzyme concentration
[10] = correction: none, vmax divided by enzyme concentration

With CF-PSVAGLAGGC(Cy5)-NH2 [8aa-Cy5] the “increase of kcat with peptide length” value (TLP-ste (C288L/N181C)) was 21 fold, the Km (TLP-ste (C288L/N181C); [4]) was 17.6 ± 11.1 µM and the vmax (TLP-ste (C288L/N181C); [5]) was 78.2 ± 48.2 ×10^–4 μM s^–1. The kcat (TLP-ste (C288L/N181C); [6]) was 7.82 s^–1, the Km (TLP-ste (C288L/N181C); [7]) was 8.2 ± 3.9 µM and the kcat/KM (TLP-ste (C288L/N181C); [7]) was 454900 M⁻¹ s⁻¹. For the same molecule, the kcat (TLP-ste (C288L/N181C); [8]) was 3.73 s⁻¹, the kcat/KM (TLP-ste (C288L/N181C); correction: IFE only) was 426100 M⁻¹ s⁻¹ and the kcat (TLP-ste (C288L/N181C); [9]) was 7.50 s⁻¹. It also gave a Km (TLP-ste (C288L/N181C); correction: none) of 8.2 ± 3.9 µM, a kcat/KM (TLP-ste (C288L/N181C); correction: none) of 436600 M⁻¹ s⁻¹ and a kcat (TLP-ste (C288L/N181C); [10]) of 3.58 s⁻¹.

In the case of CF-PSVAGLAGGC(AF647)-NH2 [8aa-AF647], the “increase of kcat with peptide length” value (TLP-ste (C288L/N181C)) is reported as 8 fold, the Km (TLP-ste (C288L/N181C); [4]) is reported as 77.6 ± 38.5 µM and the vmax (TLP-ste (C288L/N181C); [5]) is reported as 57.0 ± 27.0 ×10^–4 μM s^–1. For the same molecule, the kcat (TLP-ste (C288L/N181C); [6]) was 5.70 s^–1, the Km (TLP-ste (C288L/N181C); [7]) was 17 ± 4.6 µM and the kcat/KM (TLP-ste (C288L/N181C); [7]) was 75900 M⁻¹ s⁻¹. For the same molecule, the kcat (TLP-ste (C288L/N181C); [8]) was 1.29 s⁻¹, the kcat/KM (TLP-ste (C288L/N181C); correction: IFE only) was 70500 M⁻¹ s⁻¹ and the kcat (TLP-ste (C288L/N181C); [9]) was 5.47 s⁻¹. It also gave a Km (TLP-ste (C288L/N181C); correction: none) of 17 ± 4.6 µM, a kcat/KM (TLP-ste (C288L/N181C); correction: none) of 72900 M⁻¹ s⁻¹ and a kcat (TLP-ste (C288L/N181C); [10]) of 1.24 s⁻¹.

Molecule “TLP-ste (C288L/N181C) (Geobacillus stearothermophilus; C520L/N413C)” has a Km [1] of 7000 µM and a kcat [1] of 14 s^–1.

In the case of “H-LAGGC(AF647)-NH2 [AF647-carrying product]”, the “relative activity of TLP-ste in the presence of product” value (TLP-ste) is reported as “relative activity decreases”.

In the case of CF-PAGLAC(AF674)-NH2 [4aa-AF647], the Km (TLP-ste (C288L/N181C); [4]) is reported as 53.3 ± 33.9 µM, the vmax (TLP-ste (C288L/N181C); [5]) is reported as 7.0 ± 3.8 ×10^–4 μM s^–1 and the kcat (TLP-ste (C288L/N181C); [6]) is reported as 0.70 s^–1. The Km (TLP-ste (C288L/N181C); [7]) was 14.3 ± 4 µM, the kcat/KM (TLP-ste (C288L/N181C); [7]) was 14000 M⁻¹ s⁻¹ and the kcat (TLP-ste (C288L/N181C); [8]) was 0.20 s⁻¹. The kcat/KM (TLP-ste (C288L/N181C); correction: IFE only) was 12900 M⁻¹ s⁻¹, the kcat (TLP-ste (C288L/N181C); [9]) was 0.69 s⁻¹ and the Km (TLP-ste (C288L/N181C); correction: none) was 14.3 ± 4 µM. For the same molecule, the kcat/KM (TLP-ste (C288L/N181C); correction: none) was 13200 M⁻¹ s⁻¹ and the kcat (TLP-ste (C288L/N181C); [10]) was 0.19 s⁻¹.

For CF-PVAGLAGC(Cy5)-NH2 [6aa-Cy5], the Km (TLP-ste (C288L/N181C); [4]) was 11.6 ± 13 µM, the vmax (TLP-ste (C288L/N181C); [5]) was 29.6 ± 26.6 ×10^–4 μM s^–1 and the kcat (TLP-ste (C288L/N181C); [6]) was 2.96 s^–1. For the same molecule, the Km (TLP-ste (C288L/N181C); [7]) was 6.9 ± 6.6 µM, the kcat/KM (TLP-ste (C288L/N181C); [7]) was 271000 M⁻¹ s⁻¹ and the kcat (TLP-ste (C288L/N181C); [8]) was 1.87 s⁻¹. For the same molecule, the kcat/KM (TLP-ste (C288L/N181C); correction: IFE only) was 247400 M⁻¹ s⁻¹, the kcat (TLP-ste (C288L/N181C); [9]) was 2.87 s⁻¹ and the Km (TLP-ste (C288L/N181C); correction: none) was 6.9 ± 6.6 µM. For the same molecule, the kcat/KM (TLP-ste (C288L/N181C); correction: none) was 262300 M⁻¹ s⁻¹, the kcat (TLP-ste (C288L/N181C); [10]) was 1.81 s⁻¹ and the “concentration of hydrolyzed peptide above which fluorescence plateaus or decreases (cleaved products form aggregates)” value [2] was 2500 nM.

With CF-PAGLAC(Cy5)-NH2 [4aa-Cy5] the Km (TLP-ste (C288L/N181C); [4]) was 2.4 ± 1.9 µM, the vmax (TLP-ste (C288L/N181C); [5]) was 3.7 ± 1.6 ×10^–4 μM s^–1 and the kcat (TLP-ste (C288L/N181C); [6]) was 0.37 s^–1. For the same molecule, the Km (TLP-ste (C288L/N181C); [7]) was 1.6 ± 1.3 µM, the kcat/KM (TLP-ste (C288L/N181C); [7]) was 175000 M⁻¹ s⁻¹ and the kcat (TLP-ste (C288L/N181C); [8]) was 0.28 s⁻¹. For the same molecule, the kcat/KM (TLP-ste (C288L/N181C); correction: IFE only) was 145800 M⁻¹ s⁻¹, the kcat (TLP-ste (C288L/N181C); [9]) was 0.35 s⁻¹ and the Km (TLP-ste (C288L/N181C); correction: none) was 1.6 ± 1.3 µM. The kcat/KM (TLP-ste (C288L/N181C); correction: none) was 162500 M⁻¹ s⁻¹, the kcat (TLP-ste (C288L/N181C); [10]) was 0.26 s⁻¹ and the “concentration of hydrolyzed peptide above which fluorescence plateaus or decreases (cleaved products form aggregates)” value [2] was 2500 nM.

For {CF}-PAGLAC(Cy5)-NH2 [4aa-Cy5, CF-PAGLAC(Cy5)-NH2], the KM of hydrolysis by 1 nM TLP-ste (Michaelis-Menten fit, donor fluorescence, corrected for IFE and FRET efficiency; 30 °C, MOPS pH 7.4, 10% DMSO) [3] was 2.4 μM.

With {CF}-PSVAGLAGGC(Cy5)-NH2 [8aa-Cy5, CF-…(Cy5)-NH2] the KM of hydrolysis by 1 nM TLP-ste (Michaelis-Menten fit, donor fluorescence, corrected for IFE and FRET efficiency; 30 °C, MOPS pH 7.4, 10% DMSO) [3] was 17.6 μM.

Molecule {CF}-PVAGLAGC(Cy5)-NH2 [6aa-Cy5, CF-PVAGLAGC(Cy5)-NH2] has a KM of hydrolysis by 1 nM TLP-ste (Michaelis-Menten fit, donor fluorescence, corrected for IFE and FRET efficiency; 30 °C, MOPS pH 7.4, 10% DMSO) [3] of 11.6 μM.

In the case of {CF}-PSVAGLAGGC(AF647)-NH2 [8aa-AF647, CF-…(AF647)-NH2], the KM of hydrolysis by 1 nM TLP-ste (Michaelis-Menten fit, donor fluorescence, corrected for IFE and FRET efficiency; 30 °C, MOPS pH 7.4, 10% DMSO) [3] is reported as 77.6 μM.

Work on {CF}-PAGLAC(AF647)-NH2 [4aa-AF647, CF-PAGLAC(AF647)-NH2] yielded a KM of hydrolysis by 1 nM TLP-ste (Michaelis-Menten fit, donor fluorescence, corrected for IFE and FRET efficiency; 30 °C, MOPS pH 7.4, 10% DMSO) [3] of 53.3 μM.
